Test results: the METLIN SMRT retention time set (Domingo-Almenara et al. 2019)

assay: gradient 5% acetonitrile 3 min, to 50% in 2 min, to 85% in 15 min, held 3 min, 100 µL/min; conditions: column: Zorbax Extend-C18 2.1 x 50 mm; eluents: water / acetonitrile, 0.1% formic acid
Procedure, shortened: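 Over 3 months, pure standards in mixtures of ~100 molecules were run by HPLC coupled to a quadrupole time-of-flight mass spectrometer in positive and negative ionization mode. The column was a Zorbax Extend-C18 (2.1 × 50 mm, 1.8 μm) at 100 μL/min, eluted with water and acetonitrile each holding 0.1% formic acid, with 40 μL dead and 900 μL dwell volumes. Retention time was determined from adduct peaks chosen by software and checked manually.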

Compound	RP-LC retention time
CCC(=O)N1c2ccccc2NC2=C(C(=O)CC(C)(C)C2)C1c1ccc(O)c(OC)c1 (stereo not drawn)	703 s
Cc1ccc(-c2coc(-c3ccc(NC(=O)c4cccs4)cc3)n2)cc1	1170 s
O=S(=O)(c1ccccc1)N1CC(c2nnc(-c3ccncc3)o2)C2(CCOCC2)C1 (stereo not drawn)	660 s
CC(C)(C)c1csc(-c2csc(S(=O)(=O)NCc3ccccc3F)c2)n1	1220 s
Cc1ccc(Nc2nc(-c3ccc(Cl)cc3)cs2)nc1	1050 s
Cc1cc(C(=O)NCC(C)C)c2cc(F)ccc2n1	698 s
CCc1noc(NC(C)=O)c1-c1ccc(C)c(S(=O)(=O)Nc2cc(Cl)ccc2C)c1	891 s
COC(=O)c1cccc(Nc2c(-c3ccccc3)nc3cnc(Br)cn23)c1	949 s
CC(=O)N1CCC2(CC1)NC(=O)c1cccc(C)c1O2	650 s
Cc1ccc(C)c(NC(=O)Cn2ccc3sccc3c2=O)c1	742 s
CSc1ccc(CNC(=O)c2c(C)oc3ccn(Cc4cccc(F)c4)c(=O)c23)cc1	1110 s
Cc1cc(N(CCO)CCO)n2nc(-c3ccc(C(C)(C)C)cc3)nc2n1	687 s
O=S(=O)(Nc1cccn2c(C3CCC3)nnc12)c1cccc2cccnc12	749 s
Cc1ccc(OCc2nc(Cc3nc(-c4ccccc4)oc3C)no2)cc1	1170 s
CC(C)CN1Cc2ccccc2-n2ccnc2C12CCN(C(=O)c1ccn[nH]1)CC2	615 s
Cc1ccc(CNC(=O)C2CCN(S(=O)(=O)c3cc(C(=O)N(C)C)cs3)CC2)o1	708 s
COC(=O)C1=CN(c2cc(Cl)c(OC)cc2OC)c2ccc(F)cc2S1(=O)=O	914 s
Cc1cc(C)cc(NC(=O)C2CCN(S(=O)(=O)c3c(C)nn(-c4ccccc4)c3C)CC2)c1	1060 s

Compound	RP-LC retention time
O=S(=O)(c1cc(-c2nnc(C3CC3)o2)co1)N1CCOCC1	730 s
Cc1c(Cl)cccc1-n1nc(C)c2c(C(F)(F)F)cc(OCC(=O)NC(C)C)nc21	1160 s
CCN1CCCC1CNC(=O)c1cc(S(=O)(=O)CC)c(N)cc1OC (stereo not drawn)	591 s
Cn1c(=O)c2cc(C(=O)Nc3ccc(Cl)cc3)cnc2n(-c2ccccc2)c1=O	962 s
CCc1nnc(-c2nnc(NC3CCCCCC3)c3ccccc23)o1	821 s
Cc1nc2cc(-c3noc(CCc4c[nH]c5ccccc45)n3)ccc2o1	1020 s
O=S(=O)(NCc1nc(-c2cccc(-c3ccn[nH]3)c2)no1)c1ccccc1	768 s
CCCCN(C)S(=O)(=O)c1cc(-c2nc(C)cs2)n(CC(=O)N2CCCCC2)c1	1080 s
Cc1sc(-c2cc(C(F)(F)F)on2)cc1S(=O)(=O)N1CCCc2ccccc21	1300 s
CCc1noc(C2CCCCN2Cc2nc(-c3cccnc3)no2)n1 (stereo not drawn)	821 s
CCOC(=O)c1[nH]c(C)c(CCC(=O)N2CCC(C(=O)NCc3cccs3)CC2)c1C	755 s
COCCN1C(=O)Cc2ccccc2C1C(=O)NCc1ccccc1F (stereo not drawn)	732 s
Cn1nc(-c2nnc(-c3ccccc3)o2)c2c1CCN(S(=O)(=O)c1cccc(C(F)(F)F)c1)C2	981 s
O=C1NCCCCCCN(Cc2ccncc2)[C@@H]2CN(C3CCC3)CC[C@H]12	559 s
Cc1ccc(-c2nc3cccc(C)n3c2Nc2ccccc2)cc1	741 s
COCc1nc(C2CCN(S(=O)(=O)c3ccc4c(c3)OCCO4)C2)no1 (stereo not drawn)	779 s
Cc1cccc(NC(=O)N2CCCC2C(=O)NC(C)C)c1 (stereo not drawn)	690 s
Cc1sc(-c2cc(C(F)(F)F)on2)cc1S(=O)(=O)Nc1ccccc1	1130 s

Now from value to molecule:

RP-LC retention time	Compound
1080 s	COc1ccc(N2CCN(c3cc(SCC(=O)NCCC4=CCCCC4)ncn3)CC2)cc1
998 s	COc1ccccc1C1(CNC(=O)C(=O)NCCC2=CCCCC2)CCOCC1
1180 s	CCOc1ccc(CNC(=O)c2cc3c(=O)n(CC)c4ccccc4n3n2)cc1OC
716 s	Cc1cc(=O)n(CC(=O)NCc2ccc(F)c(Cl)c2)c(N2CCCCC2)n1
824 s	CN1c2cc(C(=O)NC3CCCCC3)ccc2C(=O)N2CCCCC21 (stereo not drawn)
699 s	Cn1nccc1C(=O)N1CCN(S(=O)(=O)c2ccc3c(c2)sc(=O)n3C)CC1
681 s	CN(Cc1ccccc1)C(=O)c1cc2c(n1C)CCN(Cc1cccc(F)c1)C2
758 s	COC(=O)c1ncn2c1C(=O)N(Cc1ccc(Cl)cc1)C(C)(C(=O)NC1CCCC1)C2 (stereo not drawn)
926 s	CC(=O)N1CCc2sc(S(=O)(=O)N3CCN(c4ccc(C)cc4)CC3)cc2C1
639 s	O=C(CCC(=O)N1CC2CCCN2c2ccccc21)NCc1ccccn1 (stereo not drawn)
573 s	COc1cccc(CN2CCn3c(nnc3[C@@H]3C[C@@H](O)CN3Cc3cccnc3)C2)c1OC
648 s	CCn1ccc2cc(S(=O)(=O)N3CCC(C(=O)NCCC(C)N4CCCC4)CC3)ccc21 (stereo not drawn)
743 s	C=CCn1c(SCC(=O)OCC)nnc1-c1ccc([N+](=O)[O-])cc1
1180 s	O=C(C1CCCCC1)N1CCc2nc(-c3ccc(Cl)cc3)ncc2C1
839 s	COCCN(CC(=O)N1CCc2sccc2C1COc1ccc(Cl)cc1)C(=O)COC (stereo not drawn)
789 s	COCCCNC(=O)c1cc(-c2ccc(OC)cc2)nc2n[nH]c(-c3ccccc3)c12
904 s	CCCn1c(-c2cccc(C(=O)NCC3CCCCC3)c2)nc2cccnc21
821 s	CC(Cc1ccco1)NC(=O)C1CCN(Cc2cc3ccccc3n2Cc2cccc(Cl)c2)CC1 (stereo not drawn)
592 s	Cc1ccc(-c2nc(CN3CCN(C(=O)NC(C)C)CC3)c(C)o2)cc1
1000 s	COc1cc(F)ccc1-c1ccnc2nc(C3CCCCC3)nn12
784 s	Cc1ccc(CNC(=O)Cn2ncc3c(c2=O)N(CC2CC2)C(=O)CS3)cc1
710 s	CCOc1ccc(NC(=O)CCC2CCN(c3cc(NC4CC4)ncn3)CC2)cc1
673 s	COC(=O)c1cnc2nc(C)ccc2c1Nc1cccc(F)c1
1360 s	CCOc1ccccc1NC(=O)C1CCCN(c2nc3c(s2)c(C)nn3-c2ccc(C)cc2)C1 (stereo not drawn)
808 s	O=C(Nc1cccc(Cl)c1)C1CCN(S(=O)(=O)c2ccc3[nH]c(=O)ccc3c2)CC1
905 s	CCc1ccc(NC(=O)Cn2c(=O)nc(N3CCCC(C)C3)c3ccccc32)cc1 (stereo not drawn)

RP-LC retention time	Compound
792 s	O=C1CCCc2cc(S(=O)(=O)N3CCCC(C(=O)N4CCc5ccccc5C4)C3)ccc2N1 (stereo not drawn)
1000 s	CCOc1ccccc1OCc1nn2c(COc3ccc(F)cc3)nnc2s1
1110 s	CCCCN1CN(c2ccc(C)cc2)c2ncccc2S1(=O)=O
684 s	COc1ccc(NC(=O)COc2ccc(-c3nnc4n3CCCC4)cc2)c(OC)c1
932 s	COc1ccccc1CNC(=O)Cn1c(=O)cc(-c2nc(C3CC3)no2)c2ccccc21
610 s	CCN1CCN(c2ccc(N3CCCC(C(=O)N4CCN(c5cccc(Cl)c5)CC4)C3)nn2)CC1 (stereo not drawn)
966 s	COc1ccc(-c2nnc(-c3ccc(C)c(S(=O)(=O)N(C)C)c3)o2)cc1
839 s	O=C(NCCc1csc(-c2cccs2)n1)C1CCN(C(=O)c2cccc(Cl)c2)CC1
791 s	Cc1cc(C(=O)N2CCCCC2)c2c(=O)n(CC(=O)Nc3cccc(C#N)c3)c(=O)n(C)c2n1
880 s	COC(=O)c1cc(OCC(=O)Nc2cc(F)ccc2F)c2cc(OC)ccc2n1
882 s	O=C(C1=CN(c2ccc(Cl)c(Cl)c2)c2cc(F)ccc2S1(=O)=O)N1CCOCC1
903 s	COC(=O)CCNC(=O)C1c2ccccc2C(=O)N(C2CCCC2)C12CCCCC2 (stereo not drawn)
771 s	COc1ccccc1C1(CNC(=O)NC2CCCCC2)CCOCC1
778 s	Cc1nc(CSCC(=O)Nc2ccc(Cl)cc2)cs1
1130 s	COc1ccc(Cl)cc1S(=O)(=O)N1CCc2nc(-c3ccc(F)cc3)ncc2C1
846 s	CCc1cc(=O)n(CC(=O)Nc2cccc(SC)c2)c(N2CCOCC2)n1
838 s	COc1ccc(-c2nnc(N3CCC(C(=O)NCCC(C)C)CC3)o2)cc1
712 s	Cc1ccccc1Nc1c(-c2ccc(N3CCOCC3)cc2)nc2ccccn12
681 s	O=C(Nc1cccc2nsnc12)C1CCN(c2ccc(-c3ccc(F)cc3)nn2)CC1
1140 s	Cn1c(=O)n(CC(=O)N2CCc3ccccc3C2)c(=O)c2cnc(-c3ccc(Cl)cc3)nc21
830 s	CCc1ccc(NC(=O)c2c(C)oc3nc(C)nc(N4CCCC4)c23)cc1
1110 s	COc1ccc(S(=O)(=O)N2CCCC(C(=O)Nc3ccc(Br)cc3)C2)cc1C (stereo not drawn)
1140 s	Cc1ccc(NC(=O)c2cc(C(C)C)n3nccc3n2)cc1
1010 s	O=C(NC1(c2nc(-c3cccnc3)no2)CCCCC1)c1ccc(Br)cc1
926 s	COc1ccc(N2CC(c3nc(-c4ccccc4Cl)no3)CC2=O)cc1 (stereo not drawn)
638 s	COc1ccc(Cl)c2c(=O)c3c([nH]c12)CCN(CC(=O)Nc1ccccc1Cl)C3
